Assay results: PubChem BioAssay AID179 (DTP/NCI, 2004)
Calls of active or inactive are those of the source.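 How the source made its calls: active means compounds giving half or more protection of infected cells from virus-caused growth loss, again on retest; inactive means the rest.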

System: CEM cells HIV-1 protection, formazan growth assay
Assay: NCI AIDS Antiviral Assay
Conditions: for IC50: measured here: growth of uninfected CEM cells
In short: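 Human CEM cells, uninfected and HIV-1-infected, received five drug concentrations, and growth was read by soluble formazan assay. Compounds giving at least 50% protection were retested; reproducible 100% protection defined confirmed active.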

SMILES	EC50	IC50	outcome
C[N+](C)([O-])Cc1cccc(NC(=O)c2ccc(C(=O)Nc3cccc(C[N+](C)(C)[O-])c3)cc2)c1	> 200 µM	> 200 µM	
Cc1ccc(S(=O)(=O)OCC2COC(C)(C)O2)cc1 (configuration not stated)	> 871 µM	> 871 µM	
CCCCCCCCCCCc1noc2c1C(=O)CCC2	> 24.5 µM	> 24.5 µM	
Oc1ccc(-c2c3ccccc3c(-c3ccc(OCCBr)cc3)c3ccccc23)cc1	> 100 µM	> 100 µM	
COc1ccc(N=Nc2c(N)nn3cc4c(nc23)-c2ccccc2CC4)cc1	> 200 µM	2.57 µM	
CCOC(=O)N1CCN(c2c(N)nc(C)[nH]c2=O)CC1	> 200 µM	> 200 µM	
CC1(C)COC2=C(C1)C(=O)c1ccccc1C2=O	> 200 µM	0.708 µM	
CC(C)(C)N/N=C(\C(=O)NC1=C(Cl)C(=O)c2ccccc2C1=O)C1C=CCS1(=O)=O (configuration not stated)	> 209 µM	12.9 µM	
CCOC(=O)C1CCC2c3[nH]c4ccccc4c3CCN2C1=O (configuration not stated)	> 115 µM	> 115 µM	
N#CC1=C(N)N(c2ccccc2)C(c2ccco2)C1(C#N)C#N (configuration not stated)	> 200 µM	10 µM	
O=[N+]([O-])c1ccc(N=P(c2ccccc2)(c2ccccc2)c2ccccc2)n2nnnc12			inactive
CO/N=C(\C(=O)Nc1cncs1)c1csc(NC(c2ccccc2)(c2ccccc2)c2ccccc2)n1	> 200 µM	> 200 µM	
O=NC1C2C=CC(C2)C1Cl (configuration not stated)	> 200 µM	> 200 µM	
Fc1ccc2c(c1)CN(CCN1COc3ccc(F)cc3C1)CO2	> 8.13 µM	> 8.13 µM	
O=c1oc2cccnc2n1CCCCN1CCN(c2ccccc2)CC1	> 200 µM	126 µM	
O=C(O)COc1ccc(O)c2c1C(=O)CCCC2=O			inactive
CC1=CC(C)(C)NC(=S)N1c1ccc(N(C)C)cc1			inactive
CC(=O)/C(=C/c1ccc([N+](=O)[O-])cc1)C(=O)c1ccccc1	> 87.1 µM	16.6 µM	
Cc1cc(S(=O)(=O)N2CCNC2=O)c(S)cc1Cl	89.1 µM	251 µM	
COc1ccc(/C=C(\C#N)c2ccccc2)cc1OC	> 70.8 µM	> 70.8 µM	
Cc1cccc(C)c1NC(=O)CCCC(=O)C1/C(=N/NC(=O)CC#N)CCC/C1=N\NC(=O)CC#N (configuration not stated)	> 72.4 µM	> 72.4 µM	
O=[N+]([O-])c1cc(C(F)(F)F)cc2n[se]nc12			inactive

SMILES	EC50	IC50	outcome
C/C=C1\CC2C(=O)CCC2C2c3ccccc3OC12 (configuration not stated)	> 200 µM	> 200 µM	
COc1ccc(CCC2NCCc3cc(OC)c(OC)cc32)cc1 (configuration not stated)	> 692 µM	102 µM	
O=C(O)c1ccc(S(=O)(=O)c2ccc(C(=O)O)c(C(=O)O)c2)cc1C(=O)O	> 200 µM	191 µM	
CC(C)(C)C1=CC(=Nc2c([N+](=O)[O-])cc([N+](=O)[O-])cc2[N+](=O)[O-])C=C(C(C)(C)C)C1=O	> 11.5 µM	> 11.5 µM	
O=C1NC(=O)C(c2ccccc2)O1 (configuration not stated)	> 1410 µM	447 µM	
CCNc1ncnc2c1ncn2C1OC(CO)CC1F (configuration not stated)	> 224 µM	> 224 µM	
COC12OCC(OC1OCc1ccccc1)C1OC(C)(C)OC12 (configuration not stated)	> 200 µM	105 µM	
N#Cc1cnsc1			inactive
O=C(CC(=O)n1nc(-c2ccccc2)c(N=Nc2ccc(Cl)cc2)c1-c1ccccc1)Nc1cccc(Cl)c1	> 200 µM	81.3 µM	
CC(=O)OCC1OC(Sc2nc(-c3ccc(Cl)cc3)c(C#N)c(=O)n2C2OC(COC(C)=O)C(OC(C)=O)C(OC(C)=O)C2OC(C)=O)C(OC(C)=O)C(OC(C)=O)C1OC(C)=O (configuration not stated)	> 100 µM	18.6 µM	inactive
COc1cc2c(cc1O)CC[n+]1cc3c(OC)c(OC)ccc3cc1-2	> 182 µM	> 182 µM	
CS(=O)(=O)OCC1OS(=O)OC1COS(C)(=O)=O (configuration not stated)	> 200 µM	4.9 µM	
[C-]#[O+].[C-]#[O+].[C-]#[O+].[C-]#[O+].[C-]#[O+].[Mo+2].[Mo+4].[c-]1[c-][c-][cH-][c-]1.[c-]1[c-][c-][cH-][c-]1.c1ccc([PH+](CC[PH+](c2ccccc2)c2ccccc2)c2ccccc2)cc1	> 4.37 µM	2.69 µM	
CCOC(=O)C1C(C(=O)OCC)N2c3ccccc3-c3cccnc3[C@@H]2[C@H]1C(=O)OCC (some centres not stated)	> 100 µM	95.5 µM	
CCOC(=O)CCNC(=O)Sc1ccccc1C(=O)NCCC(N)=O	1.2 µM	110 µM	
COC(=O)/C(=C\c1cn(C(C)=O)c2ccccc12)P(=O)(OC)OC	> 200 µM	33.1 µM	
CCOC(=O)/C(F)=C/c1cccc(C#N)c1	> 117 µM	> 117 µM	
CCOC(=O)c1c[nH]c2oc(/C=N/N3CC(CN4CCOCC4)OC3=O)cc2c1=O (configuration not stated)	> 302 µM	162 µM	
Nc1c(-c2nc3ccccc3[nH]2)sc(=S)n1-c1ccccc1	> 11.5 µM	> 11.5 µM	
O=S(=O)(O)c1ccc(NNc2ccc(S(=O)(=O)O)cc2)cc1			inactive
NS(=O)(=O)c1ccc(NC(=O)c2cccn3c(=O)c4ccccc4nc23)cc1			inactive
CCc1n[nH]c(=O)n1O	> 200 µM	> 200 µM	
